These results are taken from patent publication US20110251135A1, “INHIBITORS OF PERITONEAL SEEDING OF CANCER CELLS” (University of Utah Research Foundation, priority 2008, published 2011).

In assay [1] the test system is NF-κB. In words: NF-κB electrophoretic mobility shift assay (EMSA), nuclear lysates of treated HT-29 cells. Format: cell-based, human. As to conditions: 10 μM, 3 and 6 hour incubations.
In assay [2] the test system is JNK. The assay can be described thus: JNK activity (phosphorylation of c-JUN) in colon and pancreatic cancer cell lines. Type of assay: cell-based, human.
In assay [3] the test system is 293-COX-2 cells. The assay can be described thus: Apoptosis of 293-COX-2 cells with or without ponasterone induction of COX-2. Format: cell-based. To be noted: 8 hours of exposure. The method, then:
The transiently suspended cells were lysed and allowed to bind to DNA oligonucleotides, containing the NF-κB consensus binding site, that were immobilized to 96-well plates. NF-κB protein bound to the oligonucleotides was detected by an antibody to the p65 subunit that only recognized p65 that is bound to DNA. The positive control was HeLa cells that were stimulated with TNFα. A control was performed using excess free NF-κB oligonucleotides (Competitor). […] NF-κB binding activity was determined by the TransAM assay as in FIG. 5A. […] The data shown represent typical results of three separate experiments. […] An immunoblot for COX-2 was performed.
DLD-1, HCT-116, and HT-29 colon cancer cell lines were obtained from the ATCC collection and were cultured in Dulbecco's Modification of Eagle's Medium (DMEM) supplemented with 10% fetal bovine serum, glutamine, penicillin, and streptomycin. […]
Single cell suspensions were plated at 100,000 cells per well in 24-well plates in media containing DMSO, BAY 11-7082, BAY 11-7085, or MG-132 for 8-24 hours in an incubator. […] 400 μL of binding buffer was added to each tube and the cells were analyzed by flow cytometry immediately. The percent of apoptosis was determined as the percent of annexin V-positive, propidium iodide-negative cells of the total cells counted. […]

The test system of assay [4] is Su.86 pancreatic cancer cells. In words: Athymic mouse model of peritoneal carcinomatosis (IP cancer cells, bioluminescent imaging, 9 days). Format: in vivo. To be noted: Su.86 IP; BAY 11-7085 5 mg/kg IP 24 h before, then every 3 days for 9 days. The method, then: (§1) Twenty-four hours later, […] Su.86 or BxPC-3 pancreatic cancer cells, that were stably transfected with a firefly luciferase construct, were delivered IP. […] At the end of treatment, the mice received luciferin IP and sacrificed. The abdominal cavities were exposed and the mice placed immediately in a bioluminescent imager and photographed. The individual intraabdominal peritoneal tumors were counted. The subset of tumor implants limited to the liver surface was determined as well. […] The proportion of mice with peritoneal and/or hepatic tumor implants were compared using a test of proportions (*p<0.05).

Assay [5] has as its system BxPc-3 pancreatic cancer cells. The assay is described as above. Type of assay: in vivo. To be noted: BxPc-3 IP; BAY 11-7085 5 mg/kg IP 24 h before, then every 3 days for 9 days. The method, then:
as §1

Assay [6] deals with transiently suspended Caco-2 cells. The assay can be described thus: Apoptosis of transiently suspended cells during readhesion (annexin V assay). Format: cell-based, human. As to conditions: Caco-2 transiently suspended, treated and allowed to readhere. The procedure: Single cell suspensions were plated at 100,000 cells per well in 24-well plates in media containing DMSO, BAY 11-7082, BAY 11-7085, or MG-132 for 8-24 hours in an incubator. Alternatively, DMSO, BAY 11-7082, BAY 11-7085, or MG-132 were added to cells that were confluent and adherent for several days. The nonadherent cells were aspirated off with the media and spun for 3 minutes at 2,000 rpm in 15 mL polypropylene tubes. The adherent cells were washed twice with PBS, dispersed in trypsin, and spun down for 3 minutes at 2,000 rpm in 15 mL polypropylene tubes. […] 400 μL of binding buffer was added to each tube and the cells were analyzed by flow cytometry immediately. The percent of apoptosis was determined as the percent of annexin V-positive, propidium iodide-negative cells of the total cells counted.
Since trypsin can activate protease-activated receptor-2 in colon cancer cell lines, which then results in increased cell proliferation, (Darmoul et al., “Initiation of human colon cancer cell proliferation by trypsin acting at protease-activated receptor-2,” Br J Cancer 85:772-9, 2001). NF-κB activation was determined in adherent and confluent DLD-1, HCT-116, Caco-2 and HT-29 cells that were removed from plastic dishes by trypsin or scraping.

In assay [7] the test system is NF-κB in HT-29 cells. In words: NF-κB ELISA during readhesion. To be noted: colon and pancreatic cancer readhesion. Type of assay: cell-based, human. From the text: Untreated adherent monolayers (Control) and Jurkat cells treated with TNFα (Jurkat Control) served as controls. The cells were collected and analyzed for NF-κB activation in an ELISA (see Methods). […] The floating and readherent cells were collected and lysed. Aliquots of the cell lysates were used to generate cleaved PARP immunoblots. All lanes contain equal total protein concentrations and the actin blot served as a loading control. The blots shown are typical of duplicate experiments. […] The floating cells were washed away and the adherent cells were then fixed and stained with crystal violet. The cells were lysed in deoxycholate and the intensity of the staining quantified by spectrophotometry. The results are normalized to the controls.
Nuclear lysates were generated, normalized for total protein concentration, and used to determine NF-κB activity in an ELISA kit (Panomics) per the manufacturer's instructions.

Molecules are shown by their SMILES.

On to `CC(C)(C)c1ccc(S(=O)(=O)/C=C/C#N)cc1` [BAY 11-7085, (2E)-3-[4-(tertiarybutylphenyl)sulfonyl]-2-propenenitrile], for which the “inhibition of NF-κB activity (EMSA)” value in assay [1] is recorded as “more profound inhibition of NF-κB activity”. Besides, the “JNK activity (phosphorylation of c-JUN)” value in assay [2] is given as “readily induced JNK activity”. For the same compound, the apoptosis result in assay [3] (ponasterone-induced 293-COX-2 cells (1 μg/mL, 48 hours)) was “marked increase in BAY 11-7085-induced apoptosis”; in assay [3] (uninduced 293-COX-2 cells), “no increase in apoptosis”. The “% with Liver Implants” value was 0% in assay [4] and 29% in assay [5]. The “% with Peritoneal Implants” value in assay [4] turned out to be 33%; in assay [5] it was 71%. Besides, the “BAY 11-7085-induced apoptosis during readhesion” value in assay [6] is “moderate increase”. Besides, the “NF-κB inhibitor potency on a molar basis (comparison)” value in assay [7] is recorded as “more potent NF-κB inhibitor than rosiglitazone”.
